Active and inactive are the calls of the source.
Key:
Format in all cases: functional, organism-based
Salmonella typhimurium = test: Antibacterial activity against Salmonella Typhimurium ATCC 14028; conditions: Salmonella enterica subsp. enterica serovar Typhimurium
Escherichia coli = test: Antibacterial activity against Escherichia coli ATCC 11775
Staphylococcus aureus = test: Antibacterial activity against Staphylococcus aureus ATCC 12600
Bacillus subtilis = test: Antibacterial activity against Bacillus subtilis ATCC 6081

Measured: Activity

COC[C@@]1(O)C(=O)CC[C@@]12CC(OC)=C(OC)C2=O
inactive: all assays above

COCC1(O)OCCC1=O (stereo not drawn)
inactive: all assays above

Reference: ChEMBL document CHEMBL1148184, “Gloiosiphones A and B, Novel Metabolites from the Red Marine Alga Gloiosiphonia verticillaris” (J Nat Prod, 1993)
